US9975918B2 (Van Andel Research Institute, priority 2013, dated 2018)
Substitutions are numbered along the chain they refer to. Values belong to the molecule of their own block, whether it stands above or below them.

Columns and labels:
[1] = when used at high concentration; cited from earlier work
[2] = system: GR Q642 mutations (Q642A, Q642F, Q642E, Q642K); assay: MMTV-Luc transactivation assay with the other Q642 mutations; format: cell-based; settings: MF 1 nM, DEX 10 nM
GR [3] = molecular target: T1, GR (Homo sapiens, UniProt P04150); assay: MMTV-Luc transactivation (induction) reporter assay in AD293 cells; format: cell-based; settings: for potency for GR, in words: compounds without 17α furoate; for effect of the 17α furoate on potency and efficacy, in words: relative to the corresponding compound without 17α furoate; for potency compared with reference glucocorticoids, in words: MMTV-Luc, AD293 cells
T1 construct: expressed in transfected cells; host or cells: AD293 cells
T1 sequence (P04150 1-777): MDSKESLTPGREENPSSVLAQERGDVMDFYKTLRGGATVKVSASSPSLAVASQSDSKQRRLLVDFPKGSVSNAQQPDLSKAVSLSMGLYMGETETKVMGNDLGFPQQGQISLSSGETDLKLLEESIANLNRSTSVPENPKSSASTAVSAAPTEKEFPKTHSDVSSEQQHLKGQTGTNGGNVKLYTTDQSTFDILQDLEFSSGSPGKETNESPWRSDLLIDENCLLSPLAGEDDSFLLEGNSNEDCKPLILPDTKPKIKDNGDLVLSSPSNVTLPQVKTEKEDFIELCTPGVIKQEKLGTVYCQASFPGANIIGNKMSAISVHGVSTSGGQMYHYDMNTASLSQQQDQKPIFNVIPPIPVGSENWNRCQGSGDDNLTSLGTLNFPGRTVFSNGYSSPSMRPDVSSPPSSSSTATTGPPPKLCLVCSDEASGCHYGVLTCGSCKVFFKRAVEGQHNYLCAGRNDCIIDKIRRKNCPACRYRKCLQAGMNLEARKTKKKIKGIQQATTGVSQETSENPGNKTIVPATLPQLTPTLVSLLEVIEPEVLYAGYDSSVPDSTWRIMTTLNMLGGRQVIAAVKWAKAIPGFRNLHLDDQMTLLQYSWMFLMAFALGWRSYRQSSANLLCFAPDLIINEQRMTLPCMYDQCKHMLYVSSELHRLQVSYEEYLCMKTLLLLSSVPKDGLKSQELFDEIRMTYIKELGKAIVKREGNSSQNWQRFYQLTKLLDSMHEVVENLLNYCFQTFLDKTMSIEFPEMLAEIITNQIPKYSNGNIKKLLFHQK

GR [4] = molecular target: T1, GR; assay: AP1-Luc transrepression reporter assay in AD293 cells; format: cell-based
GR Q642N = molecular target: T2, GR Q642N (Homo sapiens, UniProt P04150, Q642N); assay: MMTV-Luc transactivation assay with Q642N mutant; format: cell-based; settings: compared with wild type; up to saturation concentration
T2 construct: expressed in transfected cells; host or cells: AD293 cells
T2 sequence (P04150 1-777 Q642N): T1 sequence (P04150 1-777) with Q642N
Experimental: AD293 cells were split at 20,000/well in 24 well plate one day before transfection. For transactivation, 100 ng pHHLuc (MMTV-Luc) plasmid, 0.1 ng pRShGR together with 5 ng phRGtkRenilla were transfected by X-tremeGENE 9 (Roche) into AD293 cells per well. For transreperssion, 10 ng AP1-Luc, 100 ng pRShGR and 5 ng phRGtkRenilla were transfected into AD293 cells per well. One day after transfection, cells were induced by different treatment (steroids or vehicle) 16 hrs overnight.

Compound: CC1=C[C@@H]2[C@H]([C@@H](O)C[C@@]3(C)[C@H]2C[C@@H](C)[C@]3(O)C(=O)CO)[C@@]2(C)Cc3cnn(-c4ccccc4)c3C=C12 [DAC, deacylcortivazol]
cytotoxicity, in words [1]: strong cytotoxicity

Compound: C[C@@H]1C[C@H]2[C@@H]3CCC4=CC(=O)C=C[C@]4(C)[C@@]3(Cl)[C@@H](O)C[C@]2(C)[C@@]1(OC(=O)c1ccco1)C(=O)CCl [MF, Mometasone Furoate]
transactivation activity at sub-saturated concentration, in words [2]: loss of most of the activity

Compound: CCNC(=O)[C@@]1(O)CCC2C3CCC4=Cc5c(cnn5-c5cccc(C(=O)NCc6ccccc6)c5)C[C@]4(C)C3[C@@H](O)C[C@@]21C (some centres unmarked) [VSG02]
potency for GR, in words (GR [3]): relatively low potency

Compound: CCCNC(=O)[C@@]1(O)CCC2C3CCC4=Cc5c(cnn5-c5cccc(C(=O)NCc6ccccc6)c5)C[C@]4(C)C3[C@@H](O)C[C@@]21C (some centres unmarked) [VSG03]
potency for GR, in words (GR [3]): relatively low potency

Compound: CCNC(=O)[C@@]1(OC(=O)c2ccco2)CCC2C3CCC4=Cc5c(cnn5-c5cccc(C(=O)NCc6ccccc6)c5)C[C@]4(C)C3[C@@H](O)C[C@@]21C (some centres unmarked) [VSG10]
effect of the 17α furoate on potency and efficacy, in words (GR [3]): greatly increased both GR potency and efficacy

Compound: CCCNC(=O)[C@@]1(OC(=O)c2ccco2)CCC2C3CCC4=Cc5c(cnn5-c5cccc(C(=O)NCc6ccccc6)c5)C[C@]4(C)C3[C@@H](O)C[C@@]21C (some centres unmarked) [VSG11]
effect of the 17α furoate on potency and efficacy, in words (GR [3]): greatly increased both GR potency and efficacy

Compound: C[C@]12Cc3cnn(-c4cccc(C(=O)NCc5ccccc5)c4)c3C=C1CCC1C2[C@@H](O)C[C@@]2(C)C1CC[C@]2(OC(=O)c1ccco1)C(=O)NCc1ccccc1 (some centres unmarked) [VSG14]
effect of the 17α furoate on potency and efficacy, in words (GR [3]): greatly increased both GR potency and efficacy

Compound: CCC(=O)O[C@]1(C(=O)NCc2ccccc2)CCC2C3CCC4=Cc5c(cnn5-c5cccc(C(=O)NCc6ccccc6)c5)C[C@]4(C)C3[C@@H](O)C[C@@]21C (some centres unmarked) [VSG15]
potency for GR, in words (GR [3]): relatively low potency

Compound: CON(C)C(=O)[C@@]1(OC(=O)c2ccco2)CCC2C3CCC4=Cc5c(cnn5-c5ccccc5)C[C@]4(C)C3[C@@H](O)C[C@@]21C (some centres unmarked) [VSG22]
potency compared with reference glucocorticoids, in words (GR [3]): slightly weaker than MF
EC50 change on replacement of the 17α hydroxyl group by a furoate ester (GR [3]; VSG22 vs VSG24): greater than 1000 fold
effect of the 17α furoate on potency and efficacy, in words (GR [3]): greatly increased both potency and efficacy

Compound: CON(C)C(=O)[C@@]1(OC(=O)c2ccco2)CCC2C3CCC4=Cc5c(cnn5-c5ccccc5)C[C@]4(C)C3[C@@H](O)C[C@@]21C (some centres unmarked) [VSG24F]
potency compared with reference glucocorticoids, in words (GR [3]): better than those of DEX and DAC

Compound: CON(C)C(=O)[C@@]1(O)CCC2C3CCC4=Cc5c(cnn5-c5ccccc5)C[C@]4(C)C3[C@@H](O)C[C@@]21C (some centres unmarked) [VSG24]
activity in the MMTV reporter assay, in words (GR [3]): almost no activity

efficacy as % of the efficacy of DEX, transactivation (GR [3]; at its saturation concentration (10 μM)): 80%
potency compared with DEX, transrepression, in words (GR [4]): much weaker than DEX
full dose-response curve of Q642N, in words (GR Q642N): inactive
Compound: C[C@]12CCC(=O)C=C1CC[C@@H]1[C@@H]2[C@@H](O)C[C@@]2(C)[C@H]1CC[C@]2(O)C(=O)CO [cortisol, Cortisol]

leftward shift of the cortisol dose-response curve (GR [3]; transactivation, relative to cortisol): about 5 fold
Compound: C[C@]12C=CC(=O)C=C1CC[C@@H]1[C@@H]2[C@@H](O)C[C@@]2(C)[C@H]1CC[C@]2(O)C(=O)CO [prednisolone, reference compound]
